A value given as a limit tells only on which side of the number the result lay.

The target of assay [1] is Bcl-XL (Homo sapiens, UniProt Q07817). In words: Inhibition of Bcl-XL (disruption of Bcl-XL/Bim interaction). In kind it is binding. The conditions noted are these: for inhibition at 50 µM / % Inhibition (50 μM) Bcl-XL: compound at 50 μM; for inhibition at 25 µM / % Inhibition (25 μM) Bcl-XL: compound at 25 μM. Here is the method: (§1) In a subsequent study, a structurally diverse library of forty five thio acids and thirty eight sulfonyl azides (identified above) was screened in parallel against Mcl-1 and Bcl-XL using the above mentioned approach. Several potential hit combinations were identified (Table 3). All of these kinetic TGS hit compounds were synthesized (identified above and in Table 3). All the reactions were performed at 20-30 mg scale. The 9-fluorenylmethyl thioester was placed in a 2.0 mL vial and 3.5% DBU/dry DMF solution was added (per 1 μmol of thioester, 4.7 μL, of 3.5% DBU/dry DMF solution was added) and the reaction was stirred for one minute. Then the sulfonylazide (1 eq to thioester) was added to the reaction mixture and immediately bubbling was observed. After the reaction was completed (approximately one minute, monitored by LC-MS) water (200 μL) was added and the pH was adjusted to 7.0 using 1M HCl solution. The reaction mixture was extracted with DCM until there is no product in the aqueous layer (checked by TLC or LC-MS). The product was purified by flash chromatography. Testing of these acylsulfonamides has shown that the hit compounds disrupt the Bcl-XL/Bim or Mcl-1/Bim interaction (Table 3).
Bcl-XL, sequence (Q07817 whole entry, species assumed): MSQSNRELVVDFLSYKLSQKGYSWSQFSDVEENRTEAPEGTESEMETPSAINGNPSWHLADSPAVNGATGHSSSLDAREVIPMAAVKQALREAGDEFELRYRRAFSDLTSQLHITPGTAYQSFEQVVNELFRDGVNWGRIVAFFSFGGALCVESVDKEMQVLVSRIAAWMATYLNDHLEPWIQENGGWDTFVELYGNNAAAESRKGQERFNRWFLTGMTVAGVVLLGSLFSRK

Assay [2] concerns the target Mcl-1 (Homo sapiens, UniProt Q07820). In words: Inhibition of Mcl-1 (disruption of Mcl-1/Bim interaction). In kind it is binding. The note with it: for inhibition at 25 µM / % Inhibition (25 μM) Mcl-1: compound at 25 μM; for inhibition at 50 µM / % Inhibition (50 μM) Mcl-1: compound at 50 μM. Here is the method: as §1

Mcl-1, sequence (Q07820 whole entry, species assumed): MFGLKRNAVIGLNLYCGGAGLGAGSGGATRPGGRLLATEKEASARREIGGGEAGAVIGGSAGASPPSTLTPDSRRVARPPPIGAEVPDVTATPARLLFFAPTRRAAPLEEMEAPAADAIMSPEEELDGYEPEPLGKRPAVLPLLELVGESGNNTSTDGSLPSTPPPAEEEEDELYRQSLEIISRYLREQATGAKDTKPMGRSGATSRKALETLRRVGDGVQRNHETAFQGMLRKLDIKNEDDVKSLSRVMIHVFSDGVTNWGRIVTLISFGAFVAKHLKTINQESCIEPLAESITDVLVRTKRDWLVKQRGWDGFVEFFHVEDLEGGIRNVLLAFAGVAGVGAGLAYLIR

In the case of `O=C(NS(=O)(=O)c1ccc(CN(CCSc2ccccc2)Cc2c(F)cccc2Cl)cc1)c1ccccc1` [SZ15TA1], in assay [1], the inhibition (in general, the relative decrease from the control value, in per cent) at 50 µM came out at 53.4%. In addition, the IC50 (commonly the concentration that inhibits the measured activity by half) in assay [2] came to 9.7 µM.

With `Cn1cc(C(=O)C2CCCCC2)c2cc(C(=O)NS(=O)(=O)c3ccc(-c4ccc(C(C)(C)C)cc4)cc3)ccc21` [SZ11TA40], in assay [1], the inhibition at 25 µM came out at 30.7% and the inhibition at 50 µM came to 58.7%. In addition, in assay [2], the IC50 came out at 21.9 µM, the inhibition at 25 µM is 74% and the inhibition at 50 µM is > 99%.

Regarding `[N-]=[N+]=NS(=O)(=O)c1ccc(CN(CCSc2ccccc2)Cc2ccc(S(=O)(=O)NC(=O)c3ccc(CCc4ccccn4)cc3)cc2)cc1` [SZ9TA17], in assay [1], the inhibition at 25 µM was 50% and the inhibition at 50 µM is 63.5%. Besides, in assay [2], the IC50 was found to be 20.4 µM, the inhibition at 25 µM was determined as 69.3% and the inhibition at 50 µM stood at 103%.

For `COc1cccc(CN(CCSc2ccccc2)Cc2ccc(S(=O)(=O)NC(=O)c3ccc4c(ccn4Cc4ccc(C(F)(F)F)cc4C(F)(F)F)c3)cc2)c1` [SZ17TA30], in assay [1], the “% Inhibition (25 μM) Bcl-XL” value was <2.0% and the “% Inhibition (50 μM) Bcl-XL” value was <2.0%. Moreover, in assay [2], the “% Inhibition (25 μM) Mcl-1” value is on record as 18.0% and the “% Inhibition (50 μM) Mcl-1” value was found to be 15.8%.

On to `CC1(C)CCN(c2ccc(C(=O)NS(=O)(=O)c3ccc4ccc(S(=O)(=O)NCCSc5ccccc5)cc4c3)cc2)CC1` [SZ7TA2], for which, in assay [1], the IC50 worked out at 28.6 µM, the inhibition at 25 µM was determined as 15.5% and the inhibition at 50 µM came out at 73%. In addition, in assay [2], the IC50 is 16.9 µM, the inhibition at 25 µM came to 49.6% and the inhibition at 50 µM is 93.9%.

Take `Cn1cc(C(=O)c2cccs2)c2cc(C(=O)NS(=O)(=O)CCN(CCSc3ccccc3)Cc3ccc4c(c3)OCO4)ccc21` [SZ28TA45]: in assay [1], the “% Inhibition (25 μM) Bcl-XL” value is 25.7% and the “% Inhibition (50 μM) Bcl-XL” value was determined as 34.6%. For the same compound, in assay [2], the “% Inhibition (25 μM) Mcl-1” value is 46.8% and the “% Inhibition (50 μM) Mcl-1” value was 54.0%.

For `NS(=O)(=O)c1ccc(CN(CCSc2ccccc2)Cc2ccc(S(=O)(=O)NC(=O)c3cccc(NCCc4ccccc4)c3)cc2)cc1` [SZ10TA44], in assay [1], the “% Inhibition (25 μM) Bcl-XL” value was determined as 9.9% and the “% Inhibition (50 μM) Bcl-XL” value came to 20.6%. Also, in assay [2], the “% Inhibition (25 μM) Mcl-1” value is 27.6% and the “% Inhibition (50 μM) Mcl-1” value was determined as 63.4%.

Consider `Cc1nc(-c2ccccc2)sc1C(=O)NS(=O)(=O)c1ccc(CN(CCSc2ccccc2)Cc2ccc3c(c2)OCO3)cc1` [SZ31TA3], for which, in assay [1], the inhibition at 25 µM was determined as 29.6% and the inhibition at 50 µM was 51.3%. In assay [2], the IC50 was found to be 9.4 µM, the inhibition at 25 µM was found to be 69.9% and the inhibition at 50 µM was 100%.

Take `COc1cc(OC)cc(C(=O)NS(=O)(=O)c2ccc(CN(CCSc3ccccc3)Cc3ccc(S(=O)(=O)N=[N+]=[N-])cc3)cc2)c1` [SZ9TA5]: in assay [1], the IC50 was determined as 36 µM, the inhibition at 25 µM was 8.6% and the inhibition at 50 µM was 60.3%. Besides, in assay [2], the IC50 is 8.1 µM, the inhibition at 25 µM was determined as 50% and the inhibition at 50 µM was > 99%.

As to `O=C(NS(=O)(=O)c1ccc(CN(CCSc2ccccc2)Cc2ccc3c(c2)OCO3)cc1)c1ccc2c(ccn2Cc2ccc(C(F)(F)F)cc2C(F)(F)F)c1` [SZ31TA30], in assay [1], the “% Inhibition (25 μM) Bcl-XL” value is listed as <2.0% and the “% Inhibition (50 μM) Bcl-XL” value is <2.0%. Besides, in assay [2], the “% Inhibition (25 μM) Mcl-1” value worked out at 32.4% and the “% Inhibition (50 μM) Mcl-1” value was found to be 30.6%.

Turning to `O=C(NS(=O)(=O)c1ccc(CN(CCSc2ccccc2)Cc2ccc3c(c2)OCO3)cc1)c1ccc(OC(F)(F)F)cc1` [SZ31TA8], the inhibition at 25 µM in assay [1] came to 9.5%. In assay [2], the IC50 turned out to be 5.9 µM, the inhibition at 25 µM is 61.2% and the inhibition at 50 µM is > 99%.

Consider `O=C(NS(=O)(=O)c1ccc(CN(CCSc2ccccc2)Cc2ccc3c(c2)OCO3)cc1)c1ccc(-c2ccc(F)cc2)cc1` [SZ31TA14], for which, in assay [1], the “% Inhibition (25 μM) Bcl-XL” value came out at 17.3% and the “% Inhibition (50 μM) Bcl-XL” value was 13.3%. Further, in assay [2], the “% Inhibition (25 μM) Mcl-1” value came out at 56.2% and the “% Inhibition (50 μM) Mcl-1” value came to 59.5%.

Take `COc1cccc(CN(CCSc2ccccc2)Cc2ccc(S(=O)(=O)NC(=O)c3ccc(-c4ccccn4)cc3)cc2)c1` [SZ17TA25]: in assay [1], the “% Inhibition (25 μM) Bcl-XL” value is reported as 38.6% and the “% Inhibition (50 μM) Bcl-XL” value is listed as 54.5%. Further, in assay [2], the “% Inhibition (25 μM) Mcl-1” value was found to be 64.9% and the “% Inhibition (50 μM) Mcl-1” value is reported as 93.6%.

Consider `NS(=O)(=O)c1ccc(CN(CCSc2ccccc2)Cc2ccc(S(=O)(=O)NC(=O)c3ccc(-c4ccccn4)cc3)cc2)cc1` [SZ10TA25], for which, in assay [1], the “% Inhibition (25 μM) Bcl-XL” value was determined as 33.9% and the “% Inhibition (50 μM) Bcl-XL” value was 53.4%. Besides, in assay [2], the “% Inhibition (25 μM) Mcl-1” value was found to be 43.9% and the “% Inhibition (50 μM) Mcl-1” value was 93.6%.

On to `O=C(NS(=O)(=O)c1ccc(CN2CCN(c3ccccc3)CC2)cc1)c1ccc(-c2ccc(F)cc2)cc1` [SZ1TA14], for which, in assay [1], the “% Inhibition (25 μM) Bcl-XL” value is recorded as 9.6% and the “% Inhibition (50 μM) Bcl-XL” value is listed as <2.0%. In assay [2], the “% Inhibition (25 μM) Mcl-1” value is 9.0% and the “% Inhibition (50 μM) Mcl-1” value was determined as 24.4%.

`NS(=O)(=O)c1ccc(CN(CCSc2ccccc2)Cc2ccc(S(=O)(=O)NC(=O)CCCN3C(=O)C(c4ccc(F)cc4F)=C(c4ccc(F)cc4F)C3=O)cc2)cc1` [SZ10TA20]: in assay [1], the inhibition at 25 µM came out at 3.8% and the inhibition at 50 µM was < 2%. Besides, in assay [2], the inhibition at 25 µM is 27.8% and the inhibition at 50 µM was determined as 7.6%.

For the compound `O=C(NS(=O)(=O)c1ccc(CN(CCSc2ccccc2)Cc2c(F)cccc2Cl)cc1)c1ccc(-c2ccccn2)cc1` [SZ15TA25], in assay [1], the inhibition at 25 µM amounted to 43% and the inhibition at 50 µM was found to be 57.8%. Besides, in assay [2], the IC50 was 15.3 µM and the inhibition at 25 µM came to 77.2%.

Consider `COc1cccc(CN(CCSc2ccccc2)Cc2ccc(S(=O)(=O)NC(=O)CCCN3C(=O)C(c4ccc(F)cc4F)=C(c4ccc(F)cc4F)C3=O)cc2)c1` [SZ17TA20], for which, in assay [1], the “% Inhibition (25 μM) Bcl-XL” value is given as <2.0% and the “% Inhibition (50 μM) Bcl-XL” value is listed as <2.0%. Also, in assay [2], the “% Inhibition (25 μM) Mcl-1” value was found to be 7.2% and the “% Inhibition (50 μM) Mcl-1” value turned out to be 12.4%.

On to `CN(C)C(=O)c1cccc(-c2ccc(S(=O)(=O)NC(=O)c3ccc(CN4C(=O)C(c5ccc(F)cc5F)=C(c5ccc(F)cc5F)C4=O)cc3)cc2)c1` [SZ34TA42], for which, in assay [1], the inhibition at 25 µM amounted to 19.1% and the inhibition at 50 µM came out at 58%. In assay [2], the IC50 amounted to 29.3 µM, the inhibition at 25 µM came out at 49% and the inhibition at 50 µM is > 99%.

Regarding `[N-]=[N+]=NS(=O)(=O)c1ccc(CN(CCSc2ccccc2)Cc2ccc(S(=O)(=O)NC(=O)c3ccc(-c4ccc(F)cc4)cc3)cc2)cc1` [SZ9TA14], in assay [1], the “% Inhibition (25 μM) Bcl-XL” value is given as 8.4% and the “% Inhibition (50 μM) Bcl-XL” value turned out to be 7.0%. Moreover, in assay [2], the “% Inhibition (25 μM) Mcl-1” value was determined as 30% and the “% Inhibition (50 μM) Mcl-1” value turned out to be 42.5%.

On to `NS(=O)(=O)c1ccc(CN(CCSc2ccccc2)Cc2ccc(S(=O)(=O)NC(=O)CC3Sc4ccccc4NC3=O)cc2)cc1` (stereo not drawn) [SZ10TA34], for which, in assay [1], the “% Inhibition (25 μM) Bcl-XL” value is listed as 17.4% and the “% Inhibition (50 μM) Bcl-XL” value was 27.0%. Moreover, in assay [2], the “% Inhibition (25 μM) Mcl-1” value worked out at 19.4% and the “% Inhibition (50 μM) Mcl-1” value came to 64.1%.

For the compound `O=C(NS(=O)(=O)c1ccc(CN(CCSc2ccccc2)Cc2c(F)cccc2Cl)cc1)c1ccc(CCc2ccccn2)cc1` [SZ15TA17], in assay [1], the inhibition at 25 µM worked out at 43.4% and the inhibition at 50 µM was determined as 60%. Further, in assay [2], the IC50 worked out at 20.2 µM and the inhibition at 25 µM was determined as 79.6%.

In the case of `COc1ccc(Cc2ccc(C(=O)NS(=O)(=O)c3ccc(CN(CCSc4ccccc4)Cc4ccc5c(c4)OCO5)cc3)cc2)c(OC)c1OC` [SZ31TA24], in assay [1], the inhibition at 25 µM is 8.2% and the inhibition at 50 µM came to 15.5%. Also, in assay [2], the IC50 stood at 20 µM and the inhibition at 25 µM is 59.9%.

As for `O=C(NS(=O)(=O)CCN(CCSc1ccccc1)Cc1ccc2c(c1)OCO2)c1ccc2c(ccn2Cc2ccc(C(F)(F)F)cc2C(F)(F)F)c1` [SZ28TA30], in assay [1], the “% Inhibition (25 μM) Bcl-XL” value was 9.7% and the “% Inhibition (50 μM) Bcl-XL” value is on record as <2.0%. In assay [2], the “% Inhibition (25 μM) Mcl-1” value was found to be 42.8% and the “% Inhibition (50 μM) Mcl-1” value came to 60.5%.
